Data on 2 molecules can be found in US20250241901A1, “ACTIVATION OF MNRR1 / CHCHD2 AS A THERAPEUTIC TARGET FOR MITOCHONDRIA ASSOCIATED DISORDERS” (Wayne State University, priority 2024, published 2025).

In assay [1] the test system is E. coli-induced placental inflammation. Put plainly: E. coli-induced placental inflammation model of preterm birth. To be noted: same dosage as in LPS model. The class given is in vivo. From the text: Using the E. coli-induced placental inflammation model and methods similar to those described in Spencer et al. (PLoS One, 16(12): e0260370, 2021 doi: 10.1371/journal.pone.0260370), nitazoxanide therapy will be tested using the same dosage as above and in Purandare et al. (Placenta 140:66-71, 8 Jul. 2023; Purandare et al., bioRxiv, Feb. 1, 2023).

A further assay deals with MNRR1. Put plainly: MNRR1 immunoblot in several other human cell lines. It counts as cell-based. The following applies: 10 μM, 24 h. On the procedure: FIGS. 5A-5E: FIG. 5A: Venn diagram showing activators identified in HEK293 and MDA-MB-468 cells. FIG. 5B: Equal amounts of MELAS cells treated with Vehicle (DMSO) or various MNRR1 activating compounds (10 μM) for 24 h were separated on an SDS-PAGE gel and probed for MNRR1 levels. Actin was probed as a loading control and numbers below represent an average and standard deviation (SD) of two biological replicates. FIGS. 5C-5E: Equal amounts of cell lysates from various cell lines treated with vehicle (DMSO) or tizoxanide (10 μM) for 24 h were separated on an SDS-PAGE gel and probed for MNRR1 plus loading controls GAPDH or tubulin.
Immunoblotting: Immunoblotting was performed as described previously. Cell lysates for immunoblotting were prepared using RIPA buffer (Abcam, Waltham, MA) and included a protease and phosphatase inhibitor cocktail (Sigma, St. Louis, MO). Total protein extracts were obtained by centrifugation at 21,000×g for 30 min at 4° C. The clear supernatants were transferred to new tubes and quantified using the Bradford reagent with BSA as standard (BioRad, Hercules. CA). […] For detection after immunoblotting, the SuperSignal™ West Pico PLUS substrate (ThermoFisher, Waltham, MA) was used to generate chemiluminescence signal, which was detected with X-Ray film (RadTech, Vassar, MI).
For orientation: Immunoblotting shows a protein as a band on a membrane.

SMILES strings stand for the structures.

On to `CC(=O)Oc1ccccc1C(=O)Nc1ncc([N+](=O)[O-])s1` [nitazoxanide, Nitazoxanide], for which the “reducing or preventing pre-term birth” value in assay [1] was “effective in reducing or preventing pre-term birth”.

`O=C(Nc1ncc([N+](=O)[O-])s1)c1ccccc1O` [tizoxanide, Tizoxanide]: the MNRR1 level entry in the assay with MNRR1 is on record as “increase of MNRR1”.
